Measured values as given in PubChem BioAssay AID230 (DTP/NCI, 2004).
Several values for one entry are separate records, joined by “and”; a condition that tells them apart may be missing. Equal entries are not always repeated. Toxic doses and inconclusive results are not listed.

System: C3H/He mice, Gardner lymphosarcoma 6C3HED ip, survival T/C
Assay: NCI In Vivo Anticancer Drug Screen. Data for tumor model Lymphosarcoma Gardner 6C3HED (intraperitoneal) in C3H/He mice
Details: higher = longer survival
Method: The antitumor activity of compounds was measured in mice bearing transplantable tumors. Survival or tumor size were measured and the results are expressed as the measurement made in the treated group (T) divided by the measurement made in the vehicle treated control group (C). The tumor model used in this assay is Lymphosarcoma Gardner 6C3HED (intraperitoneal) in C3H/He mice

[1] = endpoint: survival time, mean or median, dose: 62.5 mg/kg/injection, schedule: Q01DX010 (ip), vehicle: saline
[2] = endpoint: survival time, mean or median, dose: 125.0 mg/kg/injection, schedule: Q01DX010 (ip), vehicle: saline
[3] = endpoint: survival time, mean or median, dose: 250.0 mg/kg/injection, schedule: Q01DX010 (ip), vehicle: saline
[4] = endpoint: survival time, mean or median, dose: 500.0 mg/kg/injection, schedule: Q01DX010 (ip), vehicle: saline
[5] = endpoint: survival time, mean or median, dose: 8.0 mg/kg/injection, schedule: Q01DX010 (ip), vehicle: saline
[6] = endpoint: survival time, mean or median, dose: 16.0 mg/kg/injection, schedule: Q01DX010 (ip), vehicle: saline
[7] = endpoint: survival time, mean or median, dose: 32.0 mg/kg/injection, schedule: Q01DX010 (ip), vehicle: saline
[8] = endpoint: survival time, mean or median, dose: 1.25 mg/kg/injection, schedule: Q01DX010 (ip), vehicle: saline
[9] = endpoint: survival time, mean or median, dose: 2.5 mg/kg/injection, schedule: Q01DX010 (ip), vehicle: saline
[10] = endpoint: survival time, mean or median, dose: 5.0 mg/kg/injection, schedule: Q01DX010 (ip), vehicle: saline
[11] = endpoint: survival time, mean or median, dose: 10.0 mg/kg/injection, schedule: Q01DX010 (ip), vehicle: saline
[12] = endpoint: survival time, mean or median, dose: 20.0 mg/kg/injection, schedule: Q01DX010 (ip), vehicle: saline
[13] = endpoint: survival time, mean or median, dose: 40.0 mg/kg/injection, schedule: Q01DX010 (ip), vehicle: saline
[14] = endpoint: survival time, mean or median, dose: 0.75 mg/kg/injection, schedule: Q01DX010 (ip), vehicle: saline
[15] = endpoint: survival time, mean or median, dose: 1.5 mg/kg/injection, schedule: Q01DX010 (ip), vehicle: saline
[16] = endpoint: survival time, mean or median, dose: 3.0 mg/kg/injection, schedule: Q01DX010 (ip), vehicle: saline
[17] = endpoint: survival time, mean or median, dose: 6.0 mg/kg/injection, schedule: Q01DX010 (ip), vehicle: saline
[18] = endpoint: survival time, mean or median, dose: 80.0 mg/kg/injection, schedule: Q01DX010 (ip), vehicle: saline
[19] = endpoint: survival time, mean or median, dose: 50.0 mg/kg/injection, schedule: Q01DX010 (ip), vehicle: saline

Nc1ncccc1C(=O)O
T/C [1]: 100 % of control
T/C [2]: 100 % of control
T/C [3]: 107 % of control
T/C [4]: 96 % of control

CN(C)CC(=O)c1ccc(O)c(O)c1
T/C (endpoint: survival time, mean or median, dose: 300.0 mg/kg/injection, schedule: Q01DX010 (ip), vehicle: saline): 180 % of control
T/C (endpoint: survival time, mean or median, dose: 675.0 mg/kg/injection, schedule: Q01DX010 (ip), vehicle: saline): 106 % of control

O=C(Nc1ccc(C2=NCCN2)cc1)c1cccc(C(=O)Nc2ccc(C3=NCCN3)cc2)c1
T/C [5]: 95 % of control
T/C [6]: 304 % of control
T/C [7]: 304 % of control
T/C (endpoint: survival time, mean or median, dose: 64.0 mg/kg/injection, schedule: Q01DX010 (ip), vehicle: saline): 304 % of control

O=C(O)c1[nH]c(=O)[nH]c(=O)c1F
T/C [8]: 111 % of control
T/C [9]: 95 % of control and 107 % of control
T/C [10]: 92 % of control and 103 % of control
T/C [11]: 96 % of control

O=c1[nH]cc(F)c(=O)[nH]1
T/C (endpoint: median survival time, dose: 13.3 mg/kg/injection, schedule: Q01DX009 (ip), vehicle: saline): 222 % of control
T/C (endpoint: median survival time, dose: 20.0 mg/kg/injection, schedule: Q01DX009 (ip), vehicle: saline): 222 % of control
T/C (endpoint: median survival time, dose: 27.0 mg/kg/injection, schedule: Q01DX009 (ip), vehicle: saline): 203 % of control
T/C [10]: 110 % of control
T/C [12]: 283 % of control
T/C [13]: 203 % of control

NC(CC(=O)O)C(=O)O (configuration not stated)
T/C (endpoint: median survival time, dose: 50.0 mg/kg/injection, schedule: Q01DX005 (ip), vehicle: water): 88 % of control
T/C (endpoint: median survival time, dose: 100.0 mg/kg/injection, schedule: Q01DX005 (ip), vehicle: water): 92 % of control
T/C (endpoint: median survival time, dose: 200.0 mg/kg/injection, schedule: Q01DX005 (ip), vehicle: water): 92 % of control

N=C(N)c1ccc(Nc2ccc(C(=N)N)cc2)cc1
T/C [14]: 103 % of control
T/C [15]: 119 % of control
T/C [16]: 107 % of control
T/C [17]: 100 % of control and 103 % of control
T/C (endpoint: survival time, mean or median, dose: 12.0 mg/kg/injection, schedule: Q01DX010 (ip), vehicle: saline): 89 % of control
T/C (endpoint: survival time, mean or median, dose: 24.0 mg/kg/injection, schedule: Q01DX010 (ip), vehicle: saline): 96 % of control

CC1CN1P(=S)(N1CC1C)N1CC1C (configuration not stated)
T/C [8]: 103 % of control
T/C [9]: 100 % of control and 103 % of control
T/C [10]: 92 % of control and 107 % of control
T/C [11]: 100 % of control and 103 % of control
T/C [12]: 107 % of control

O=CN(O)CC(=O)O
T/C [1]: 96 % of control
T/C [2]: 89 % of control
T/C [3]: 107 % of control
T/C [4]: 100 % of control

Cn1c(N)nc2nc[nH]c2c1=S
T/C [11]: 96 % of control and 103 % of control
T/C [12]: 96 % of control and 107 % of control
T/C [13]: 100 % of control and 107 % of control
T/C [18]: 96 % of control

Nc1nc([Se])c2ncn(C3OC(CO)C(O)C3O)c2n1 (configuration not stated)
T/C (endpoint: median survival time, dose: 1.0 mg/kg/injection, schedule: Q01DX009 (ip), vehicle: saline): 98 % of control
T/C (endpoint: median survival time, dose: 2.0 mg/kg/injection, schedule: Q01DX009 (ip), vehicle: saline): 103 % of control
T/C (endpoint: median survival time, dose: 4.0 mg/kg/injection, schedule: Q01DX009 (ip), vehicle: saline): 114 % of control
T/C (endpoint: median survival time, dose: 8.0 mg/kg/injection, schedule: Q01DX009 (ip), vehicle: saline): 107 % of control
T/C (endpoint: median survival time, dose: 16.0 mg/kg/injection, schedule: Q01DX009 (ip), vehicle: saline): 99 % of control

Cn1cnc([N+](=O)[O-])c1Sc1ncnc2nc[nH]c12
T/C [11]: 86 % of control
T/C [12]: 93 % of control
T/C [13]: 86 % of control
T/C [18]: 86 % of control

CS(=O)(=O)OCC(O)C(O)C(O)C(O)COS(C)(=O)=O (configuration not stated)
T/C (endpoint: survival time, mean or median, dose: 25.0 mg/kg/injection, schedule: Q01DX010 (ip), vehicle: saline): 94 % of control
T/C [19]: 100 % of control
T/C (endpoint: survival time, mean or median, dose: 100.0 mg/kg/injection, schedule: Q01DX010 (ip), vehicle: saline): 94 % of control and 100 % of control
T/C (endpoint: survival time, mean or median, dose: 200.0 mg/kg/injection, schedule: Q01DX010 (ip), vehicle: saline): 100 % of control and 105 % of control
T/C (endpoint: survival time, mean or median, dose: 400.0 mg/kg/injection, schedule: Q01DX010 (ip), vehicle: saline): 110 % of control

CCCCNc1ncnc2c1cnn2C
T/C (endpoint: survival time, mean or median, dose: 4.0 mg/kg/injection, schedule: Q01DX010 (ip), vehicle: saline): 90 % of control and 100 % of control
T/C [5]: 95 % of control and 100 % of control
T/C [6]: 90 % of control and 100 % of control
T/C [7]: 90 % of control and 100 % of control

C[C@]12C=CC(=O)C=C1CC[C@@H]1[C@@H]2[C@@H](O)C[C@@]2(C)[C@H]1CC[C@]2(O)C(=O)CO
T/C (endpoint: survival time, mean or median, dose: 12.5 mg/kg/injection, schedule: Q01DX010 (sc), vehicle: steriod suspending solution): 95 % of control and 100 % of control
T/C (endpoint: survival time, mean or median, dose: 25.0 mg/kg/injection, schedule: Q01DX010 (sc), vehicle: steriod suspending solution): 90 % of control and 110 % of control
T/C (endpoint: survival time, mean or median, dose: 50.0 mg/kg/injection, schedule: Q01DX010 (sc), vehicle: steriod suspending solution): 95 % of control and 105 % of control
T/C (endpoint: survival time, mean or median, dose: 100.0 mg/kg/injection, schedule: Q01DX010 (sc), vehicle: steriod suspending solution): 95 % of control and 110 % of control

Nc1nc2n[nH]nc2c(=O)[nH]1
T/C (endpoint: survival time, mean or median, dose: 25.0 mg/kg/injection, schedule: Q01DX010 (ip), vehicle: alkali diluted with saline): 109 % of control
T/C (endpoint: survival time, mean or median, dose: 50.0 mg/kg/injection, schedule: Q01DX010 (ip), vehicle: alkali diluted with saline): 115 % of control and 118 % of control
T/C (endpoint: survival time, mean or median, dose: 100.0 mg/kg/injection, schedule: Q01DX010 (ip), vehicle: alkali diluted with saline): 120 % of control
T/C (endpoint: survival time, mean or median, dose: 200.0 mg/kg/injection, schedule: Q01DX010 (ip), vehicle: alkali diluted with saline): 100 % of control

Nc1ncnc2c1ncn2C1OC(COC=O)C(O)C1O (configuration not stated)
T/C (endpoint: median survival time, dose: 13.8 mg/kg/injection, schedule: Q01DX003 (ip), vehicle: saline): 90 % of control
T/C (endpoint: median survival time, dose: 13.8 mg/kg/injection, schedule: Q12HX006 (ip), vehicle: saline): 104 % of control
T/C (endpoint: median survival time, dose: 27.6 mg/kg/injection, schedule: Q01DX003 (ip), vehicle: saline): 104 % of control
T/C (endpoint: median survival time, dose: 27.6 mg/kg/injection, schedule: Q12HX006 (ip), vehicle: saline): 104 % of control
T/C (endpoint: median survival time, dose: 55.2 mg/kg/injection, schedule: Q01DX003 (ip), vehicle: saline): 104 % of control
T/C (endpoint: median survival time, dose: 55.2 mg/kg/injection, schedule: Q12HX006 (ip), vehicle: saline): 120 % of control

N#Cc1cn(C2OC(CO)C(O)C2O)c2ncnc(N)c12 (configuration not stated)
T/C (endpoint: survival time, mean or median, dose: 31.0 micrograms/kg/injection, schedule: Q01DX010 (ip), vehicle: saline): 96 % of control
T/C (endpoint: survival time, mean or median, dose: 125.0 micrograms/kg/injection, schedule: Q01DX010 (ip), vehicle: saline): 96 % of control

CCN(CC)C(=S)S
T/C [2]: 93 % of control
T/C [4]: 96 % of control

C[N+](C)(C)c1ncnc2nc[nH]c12
T/C (endpoint: survival time, mean or median, dose: 15.0 mg/kg/injection, schedule: Q01DX010 (ip), vehicle: saline): 92 % of control
T/C (endpoint: survival time, mean or median, dose: 30.0 mg/kg/injection, schedule: Q01DX010 (ip), vehicle: saline): 96 % of control

S=P(N1CC1)(N1CC1)N1CC1
T/C [14]: 100 % of control
T/C [15]: 104 % of control and 105 % of control
T/C [16]: 100 % of control and 110 % of control
T/C [17]: 104 % of control and 115 % of control

O=P1(N(CCCl)CCCl)NCCCO1 (configuration not stated)
T/C (endpoint: median survival time, dose: 12.5 mg/kg/injection, schedule: Q01DX007 (ip), vehicle: saline): 116 % of control
T/C (endpoint: median survival time, dose: 20.0 mg/kg/injection, schedule: Q01DX003 (ip), vehicle: saline): 163 % of control
T/C (endpoint: median survival time, dose: 25.0 mg/kg/injection, schedule: Q01DX007 (ip), vehicle: saline): 116 % of control
T/C (endpoint: median survival time, dose: 40.0 mg/kg/injection, schedule: Q01DX003 (ip), vehicle: saline): 209 % of control and 724 % of control
T/C (endpoint: median survival time, dose: 80.0 mg/kg/injection, schedule: Q01DX003 (ip), vehicle: saline): 190 % of control and 722 % of control
T/C (endpoint: survival time, mean or median, dose: 6.25 mg/kg/injection, schedule: Q01DX010 (ip), vehicle: saline): 100 % of control
T/C (endpoint: survival time, mean or median, dose: 12.5 mg/kg/injection, schedule: Q01DX010 (ip), vehicle: saline): 115 % of control
T/C [19]: 115 % of control
